In article PMC10035947, “Development of novel anilinoquinazoline-based carboxylic acids as non-classical carbonic anhydrase IX and XII inhibitors” (Journal of Enzyme Inhibition and Medicinal Chemistry, 2023):
Where two headings read alike, the source gives them in different places.

Experiments:
Assay in all cases: NCI SRB assay
MDA-MB-231 = format: cell-based; details: for Growth Percent: 1.00E-5 Molar; for CC50: read-out: LC50 (the source's name); for GI%: MDA-MB-231, 10 μM
K-562 = format: cell-based, human; details: for GI%: K-562, 10 μM; for Growth Percent: K-562, 1.00E-5 Molar; for CC50: read-out: LC50 (the source's name)
A549/ATCC = format: cell-based, human; details: for GI%: 10 μM; for Growth Percent: 1.00E-5 Molar
SF-539 = format: cell-based, human; details: for GI%: SF-539, 10 μM; for Growth Percent: SF-539, 1.00E-5 Molar
SK-MEL-28 = format: cell-based, human; details: for GI%: SK-MEL-28, 10 μM; for Growth Percent: SK-MEL-28, 1.00E-5 Molar; for CC50: read-out: LC50 (the source's name)
UO-31 = format: cell-based, human; details: for GI%: UO-31, 10 μM; for Growth Percent: UO-31, 1.00E-5 Molar; for CC50: read-out: LC50 (the source's name)
OVCAR-4 = format: cell-based, human; details: for GI%: OVCAR-4, 10 μM; for Growth Percent: OVCAR-4, 1.00E-5 Molar; for CC50: read-out: LC50 (the source's name)
T-47D = format: cell-based, human; details: for GI%: 10 μM; for Growth Percent: 1.00E-5 Molar; for GI50 / TGI / CC50: 5-dose; for CC50: read-out: LC50 (the source's name)
SR = format: cell-based, human; details: for GI%: 10 μM; for Growth Percent: 1.00E-5 Molar
MOLT-4 = format: cell-based, human; details: for GI%: MOLT-4, 10 μM; for Growth Percent: MOLT-4, 1.00E-5 Molar; for CC50: read-out: LC50 (the source's name)
RXF 393 = format: cell-based, human; details: for CC50: read-out: LC50 (the source's name)
[1] = Homo sapiens, K562, K-562, 5-dose
[2] = Homo sapiens, UO-31, UO-31, 5-dose
[3] = Homo sapiens, OVCAR-4, OVCAR-4, 5-dose

SMILES: Cc1cccc(-c2nc(Nc3ccc(C(=O)O)cc3)c3ccccc3n2)c1 [8a, 4-((2-(m-Tolyl)quinazolin-4-yl)amino)benzoic acid]
- Growth Percent (MDA-MB-231; MDA-MB-231/ATCC): 93.31%
- GI% (K-562): – (Only GI% higher than 20% are shown)
- Growth Percent (K-562): 80.44%
- GI% (A549/ATCC; A549/ATCC): 22%
- Growth Percent (A549/ATCC; A549/ATCC): 78.30%
- GI% (SF-539): – (Only GI% higher than 20% are shown)
- Growth Percent (SF-539): 91.50%
- GI% (SK-MEL-28): – (Only GI% higher than 20% are shown)
- Growth Percent (SK-MEL-28): 96.84%
- GI% (UO-31): 54%
- Growth Percent (UO-31): 45.85%
- GI% (OVCAR-4): – (Only GI% higher than 20% are shown)
- Growth Percent (OVCAR-4): 83.42%
- GI% (T-47D): 22%
- Growth Percent (T-47D): 77.59%
- GI% (SR): 32%
- Growth Percent (SR): 67.75%
- GI% (MOLT-4): 22%
- Growth Percent (MOLT-4): 78.39%

SMILES: Cc1ccc(-c2nc(Nc3ccccc3C(=O)O)c3ccccc3n2)cc1 [6b, 2-((2-(p-Tolyl)quinazolin-4-yl)amino)benzoic acid]
- GI50 (MDA-MB-231; Homo sapiens, MDA-MB-231): 17.2 µM
- CC50 (MDA-MB-231; Homo sapiens, MDA-MB-231, MDA-MB-231, 5-dose): < 100 µM
- CC50 (MDA-MB-231; Homo sapiens, MDA-MB-231, MDA-MB-231/ATCC, 5-dose): > 100 µM
- GI% (MDA-MB-231): 65%
- TGI (MDA-MB-231; MDA-MB-231, 5-dose): 59.7 µM
- Growth Percent (MDA-MB-231; MDA-MB-231/ATCC): 35.40%
- TGI (MDA-MB-231; MDA-MB-231/ATCC, 5-dose): 5.97E-5 Molar
- GI50 (K-562; [1]): 7.05 µM
- CC50 (K-562; [1]): > 100 µM
- GI% (K-562): 82%
- Growth Percent (K-562): 17.64%
- TGI (K-562; K-562, 5-dose): <100 µM
- TGI (K-562; K-562, 5-dose, listed as D - 835857): > 1.00E-4 Molar
- CC50 (K-562; K-562, 5-dose): < 100 µM
- CC50 (RXF 393; Homo sapiens, RXF 393, RXF 393, 5-dose): > 100 µM
- GI50 (RXF 393; Homo sapiens, RXF 393, 5-dose): 13.1 µM
- TGI (RXF 393; RXF 393, 5-dose): 65.9 µM
- TGI (RXF 393; RXF 393, 5-dose, listed as D - 835857): 6.59E-5 Molar
- CC50 (RXF 393; RXF 393, 5-dose): < 100 µM
- GI% (A549/ATCC; A549/ATCC): 70%
- Growth Percent (A549/ATCC; A549/ATCC): 30.48%
- LC50 (A549/ATCC; A549/ATCC, 5-dose): < 100 µM
- TGI (A549/ATCC; A549/ATCC, 5-dose): <100 µM
- TGI (A549/ATCC; A549/ATCC, 5-dose, listed as D - 835857): > 1.00E-4 Molar
- LC50 (A549/ATCC; Homo sapiens, A549, A549/ATCC, 5-dose): > 100 µM
- GI50 (A549/ATCC; Homo sapiens, A549/ATCC, 5-dose): 8.31 µM
- GI50 (SF-539; Homo sapiens, SF-539, 5-dose): 11.9 µM
- CC50 (SF-539; Homo sapiens, SF-539, 5-dose, read-out: LC50 (the source's name)): 67.2 µM
- GI% (SF-539): 79%
- Growth Percent (SF-539): 21.26%
- TGI (SF-539; SF-539, 5-dose): 28.3 µM
- TGI (SF-539; SF-539, 5-dose, listed as D - 835857): 2.83E-5 Molar
- CC50 (SK-MEL-28; Homo sapiens, SK-MEL-28, SK-MEL-28, 5-dose): > 100 µM
- GI50 (SK-MEL-28; Homo sapiens, SK-MEL-28, 5-dose): 15.9 µM
- GI% (SK-MEL-28): 71%
- Growth Percent (SK-MEL-28): 28.75%
- TGI (SK-MEL-28; SK-MEL-28, 5-dose): 97.4 µM
- TGI (SK-MEL-28; SK-MEL-28, 5-dose, listed as D - 835857): 9.74E-5 Molar
- CC50 (SK-MEL-28; SK-MEL-28, 5-dose): < 100 µM
- GI50 (UO-31; [2]): 7.33 µM
- CC50 (UO-31; [2]): > 100 µM
- GI% (UO-31): 87%
- Growth Percent (UO-31): 12.56%
- GI50 (UO-31; UO-31, 5-dose): 7.3 µM
- TGI (UO-31; UO-31, 5-dose): 77.9 µM
- TGI (UO-31; UO-31, 5-dose, listed as D - 835857): 7.79E-5 Molar
- CC50 (UO-31; UO-31, 5-dose): < 100 µM
- GI50 (OVCAR-4; [3]): 8.77 µM
- CC50 (OVCAR-4; [3]): > 100 µM
- GI% (OVCAR-4): 78%
- Growth Percent (OVCAR-4): 21.83%
- GI50 (OVCAR-4; OVCAR-4, 5-dose): 8.8 µM
- TGI (OVCAR-4; OVCAR-4, 5-dose): <100 µM
- TGI (OVCAR-4; OVCAR-4, 5-dose, listed as D - 835857): > 1.00E-4 Molar
- CC50 (OVCAR-4; OVCAR-4, 5-dose): < 100 µM
- GI% (T-47D): 89%
- Growth Percent (T-47D): 10.72%
- GI50 (T-47D): 6.3 µM
- TGI (T-47D): 70.0 µM
- TGI (T-47D; listed as D - 835857): 7.00E-5 Molar
- CC50 (T-47D): < 100 µM
- GI50 (T-47D; Homo sapiens, T47D): 6.29 µM
- CC50 (T-47D; Homo sapiens, T47D): > 100 µM
- GI% (SR): 81%
- Growth Percent (SR): 18.56%
- LC50 (50% lethal concentration) (SR; 5-dose): < 100 µM
- TGI (SR; 5-dose): <100 µM
- TGI (SR; 5-dose, listed as D - 835857): > 1.00E-4 Molar
- GI50 (SR; Homo sapiens, 5-dose): 10.3 µM
- LC50 (50% lethal concentration) (SR; Homo sapiens, 5-dose): > 100 µM
- CC50 (MOLT-4; Homo sapiens, MOLT-4, MOLT-4, 5-dose): > 100 µM
- GI50 (MOLT-4; Homo sapiens, MOLT-4, 5-dose): 11.7 µM
- GI% (MOLT-4): 89%
- Growth Percent (MOLT-4): 10.91%
- TGI (MOLT-4; MOLT-4, 5-dose): <100 µM
- TGI (MOLT-4; MOLT-4, 5-dose, listed as D - 835857): > 1.00E-4 Molar
- CC50 (MOLT-4; MOLT-4, 5-dose): < 100 µM

SMILES: Cc1cccc(-c2nc(Nc3ccccc3C(=O)O)c3ccccc3n2)c1 [6a, 2-((2-(m-Tolyl)quinazolin-4-yl)amino)benzoic acid]
- GI% (MDA-MB-231): 34%
- Growth Percent (MDA-MB-231; MDA-MB-231/ATCC): 66.08%
- GI% (K-562): 71%
- Growth Percent (K-562): 28.68%
- GI% (A549/ATCC; A549/ATCC): 56%
- Growth Percent (A549/ATCC; A549/ATCC): 43.63%
- GI% (SF-539): 52%
- Growth Percent (SF-539): 47.66%
- GI% (SK-MEL-28): 50%
- Growth Percent (SK-MEL-28): 49.95%
- GI% (UO-31): 69%
- Growth Percent (UO-31): 31.01%
- GI% (OVCAR-4): 58%
- Growth Percent (OVCAR-4): 41.88%
- GI% (T-47D): 73%
- Growth Percent (T-47D): 26.79%
- GI% (SR): 77%
- Growth Percent (SR): 23.03%
- GI% (MOLT-4): 65%
- Growth Percent (MOLT-4): 34.28%

SMILES: Cc1ccc(-c2nc(Nc3cccc(C(=O)O)c3)c3ccccc3n2)cc1 [7b, 3-((2-(p-Tolyl)quinazolin-4-yl)amino)benzoic acid]
- Growth Percent (MDA-MB-231; MDA-MB-231/ATCC): 95.55%
- GI% (K-562): 20%
- Growth Percent (K-562): 80.06%
- GI% (A549/ATCC; A549/ATCC): – (Only GI% higher than 20% are shown)
- Growth Percent (A549/ATCC; A549/ATCC): 90.82%
- GI% (SF-539): 27%
- Growth Percent (SF-539): 73.18%
- GI% (SK-MEL-28): – (Only GI% higher than 20% are shown)
- Growth Percent (SK-MEL-28): 97.02%
- GI% (UO-31): 51%
- Growth Percent (UO-31): 48.97%
- GI% (OVCAR-4): 23%
- Growth Percent (OVCAR-4): 77.91%
- GI% (T-47D): – (Only GI% higher than 20% are shown)
- Growth Percent (T-47D): 83.81%
- GI% (SR): 41%
- Growth Percent (SR): 58.68%
- GI% (MOLT-4): – (Only GI% higher than 20% are shown)
- Growth Percent (MOLT-4): 89.24%

SMILES: Cc1ccc(-c2nc(Nc3ccc(C(=O)O)cc3)c3ccccc3n2)cc1 [8b, 4-((2-(p-Tolyl)quinazolin-4-yl)amino)benzoic acid]
- Growth Percent (MDA-MB-231; MDA-MB-231/ATCC): 87.83%
- GI% (K-562): 23%
- Growth Percent (K-562): 76.80%
- GI% (A549/ATCC; A549/ATCC): – (Only GI% higher than 20% are shown)
- Growth Percent (A549/ATCC; A549/ATCC): 95.03%
- GI% (SF-539): 21%
- Growth Percent (SF-539): 78.63%
- GI% (SK-MEL-28): – (Only GI% higher than 20% are shown)
- Growth Percent (SK-MEL-28): 84.51%
- GI% (UO-31): 58%
- Growth Percent (UO-31): 41.73%
- GI% (OVCAR-4): 26%
- Growth Percent (OVCAR-4): 74.11%
- GI% (T-47D): 32%
- Growth Percent (T-47D): 68.59%
- GI% (SR): 38%
- Growth Percent (SR): 61.50%
- GI% (MOLT-4): 24%
- Growth Percent (MOLT-4): 76.42%

SMILES: COc1ccc(-c2nc(Nc3ccccc3C(=O)O)c3ccccc3n2)cc1 [6c, 2-((2–(4-Methoxyphenyl)quinazolin-4-yl)amino)benzoic acid]
- GI% (K-562): 69%
- Growth Percent (K-562): 31.34%
- Growth Percent (RXF 393; RXF 393, 1.00E-5 Molar): 68.31%
- GI% (A549/ATCC; A549/ATCC): 60%
- Growth Percent (A549/ATCC; A549/ATCC): 39.61%
- GI% (SF-539): 37%
- Growth Percent (SF-539): 63.06%
- GI% (SK-MEL-28): 35%
- Growth Percent (SK-MEL-28): 65.22%
- GI% (OVCAR-4): 66%
- Growth Percent (OVCAR-4): 34.25%
- GI% (T-47D): 71%
- Growth Percent (T-47D): 29.31%
- GI% (MOLT-4): 64%
- Growth Percent (MOLT-4): 36.24%
